The values that follow come from ChEMBL document CHEMBL1201862, “PubChem BioAssay data set” (2004).

Structures can show the parent of a compound that is named as a salt. Active and inactive are the calls of the source.

For one experiment, the target named is T1, Caspase-3 (Homo sapiens, UniProt P42574).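 Further: Dose-response selectivity test against caspase-3 for candidate inhibitors of sentrin-specific proteases (SENPs).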
T1 sequence (P42574 whole entry): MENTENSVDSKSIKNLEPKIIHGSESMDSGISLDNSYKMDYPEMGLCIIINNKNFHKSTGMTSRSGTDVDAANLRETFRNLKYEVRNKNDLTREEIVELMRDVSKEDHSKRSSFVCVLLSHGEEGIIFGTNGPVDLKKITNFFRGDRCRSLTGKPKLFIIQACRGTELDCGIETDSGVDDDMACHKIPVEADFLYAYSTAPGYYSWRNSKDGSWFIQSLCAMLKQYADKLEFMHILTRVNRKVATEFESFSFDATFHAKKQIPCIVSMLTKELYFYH
It is filed as functional.

Experiment [1] has as its target Heat shock protein HSP 90-alpha (Homo sapiens, UniProt P07900). It is filed as functional, organism-based.
The target in experiment [2] is T2, Replicative DNA helicase DnaB (Mycobacterium tuberculosis, UniProt P9WMR3).
T2 sequence (P9WMR3 whole entry): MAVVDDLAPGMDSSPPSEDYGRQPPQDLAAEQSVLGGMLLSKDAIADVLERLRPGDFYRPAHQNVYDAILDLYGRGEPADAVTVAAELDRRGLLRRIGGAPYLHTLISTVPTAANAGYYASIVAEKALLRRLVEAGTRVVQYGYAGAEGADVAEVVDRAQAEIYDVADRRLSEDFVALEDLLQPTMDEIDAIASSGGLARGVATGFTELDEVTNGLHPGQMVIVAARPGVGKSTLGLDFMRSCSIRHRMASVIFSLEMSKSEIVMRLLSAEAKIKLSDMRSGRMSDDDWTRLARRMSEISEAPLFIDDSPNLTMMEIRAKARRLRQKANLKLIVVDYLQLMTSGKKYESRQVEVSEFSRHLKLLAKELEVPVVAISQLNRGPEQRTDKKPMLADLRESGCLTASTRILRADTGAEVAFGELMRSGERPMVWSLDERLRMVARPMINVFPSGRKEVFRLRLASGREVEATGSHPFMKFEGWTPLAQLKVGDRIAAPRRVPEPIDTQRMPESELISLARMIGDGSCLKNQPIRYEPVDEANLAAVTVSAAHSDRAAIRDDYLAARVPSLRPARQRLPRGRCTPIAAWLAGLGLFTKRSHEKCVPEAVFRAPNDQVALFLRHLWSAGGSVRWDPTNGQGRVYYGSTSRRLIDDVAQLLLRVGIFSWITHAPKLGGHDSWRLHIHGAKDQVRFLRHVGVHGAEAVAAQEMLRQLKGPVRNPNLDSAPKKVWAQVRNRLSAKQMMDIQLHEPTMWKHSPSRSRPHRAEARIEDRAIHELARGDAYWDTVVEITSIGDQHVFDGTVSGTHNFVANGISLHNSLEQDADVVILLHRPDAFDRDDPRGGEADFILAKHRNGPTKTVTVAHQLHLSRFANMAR
Description: DnaB intein splicing inhibitors, dose response, biochemical, cell-free fluorescence (AID 449749). It is filed as functional.

In another experiment the target is T3, Protein RecA (Mycobacterium tuberculosis, UniProt P9WHJ3).
T3 sequence (P9WHJ3 whole entry): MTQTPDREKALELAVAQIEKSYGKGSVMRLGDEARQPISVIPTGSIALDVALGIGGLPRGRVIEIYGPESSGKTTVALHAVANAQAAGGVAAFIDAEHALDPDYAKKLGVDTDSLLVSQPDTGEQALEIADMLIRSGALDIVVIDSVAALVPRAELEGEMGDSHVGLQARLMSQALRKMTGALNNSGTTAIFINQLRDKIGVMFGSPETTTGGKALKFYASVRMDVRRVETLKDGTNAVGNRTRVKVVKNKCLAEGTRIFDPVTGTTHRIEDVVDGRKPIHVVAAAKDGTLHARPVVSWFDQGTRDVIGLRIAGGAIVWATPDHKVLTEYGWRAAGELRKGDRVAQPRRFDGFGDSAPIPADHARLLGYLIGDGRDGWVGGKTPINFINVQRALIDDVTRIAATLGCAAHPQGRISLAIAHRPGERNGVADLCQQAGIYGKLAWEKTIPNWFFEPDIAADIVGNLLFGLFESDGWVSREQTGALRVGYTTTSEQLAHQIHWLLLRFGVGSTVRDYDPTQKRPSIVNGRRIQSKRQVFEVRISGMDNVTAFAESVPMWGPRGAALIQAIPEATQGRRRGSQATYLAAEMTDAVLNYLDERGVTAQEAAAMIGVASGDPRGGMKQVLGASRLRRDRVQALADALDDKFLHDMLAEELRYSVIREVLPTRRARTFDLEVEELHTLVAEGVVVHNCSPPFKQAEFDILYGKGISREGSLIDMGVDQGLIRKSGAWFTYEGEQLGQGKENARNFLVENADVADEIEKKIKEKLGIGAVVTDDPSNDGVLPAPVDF
In words: Fluorescence Cell-Free Homogeneous Dose Retest to Identify Inhibitors of RecA-Intein Splicing Activity. [Related pubchem assays (depositor defined):AID2097, AID2223, AID489010, AID492950]. It is filed as functional.

For `CCC(C)n1c(NC(=O)c2ccccc2)c(C#N)c2nc3ccccc3nc21` (stereo not given), the IC50 at Caspase-3 was 13.3 µM (active).
As to `CCN1/C(=C\c2ccc3ccccc3[n+]2CC)Sc2cc(C)ccc21`, the AC50 in experiment [1] was 7.75 µM (active).
For `CCCCCCCCCCOC(=O)C[n+]1c(COc2ccc(C)cc2)n(C)c2ccccc21`, the AC50 in experiment [2] is 3.82 µM (active); in experiment [1] it was 19.3 µM (active). Further, the concentration giving a half-maximal response (EC50) on Protein RecA was 11.7 µM (active).
For the compound `O=C(CCl)Oc1ccc2occ(C(=O)c3cccs3)c2c1`, the IC50 at Caspase-3 is 21.4 µM (active). In addition, the AC50 in experiment [2] is 16.8 µM (active). Besides, the EC50 on Protein RecA was 19.3 µM (active).
Take `CC[C@@H](CO)NC(=O)[C@@H]1C=C2c3cccc4c3c(cn4C)C[C@H]2N(C)C1` [METHYSERGIDE MALEATE]: the AC50 in experiment [2] was > 380 µM (inactive). The EC50 on Protein RecA was 237 µM (active).

By IC50 is commonly meant the midpoint of a concentration-inhibition curve. One may read the AC50 as the midpoint of the concentration-response curve, whichever way the signal moves. A word on the EC50: it is the midpoint of the concentration-response curve.
